Calls of active or inactive are those of the source. No cut-off for these calls is given here.

Data on 24 compounds can be found in ChEMBL document CHEMBL6083265, “Design, synthesis and biological evaluation of 4,6-diarylquinoxaline-based KDM4D inhibitors” (Bioorg Med Chem, 2024).

The subject of assay [1] is Huh-7. Description: cells. Particulars: Homo sapiens, Huh-7, 48 h, read-out: INH.
Description: Anticancer activity against human Huh-7 cells assessed as inhibition of cell viability at 8 uM incubated for 48 hrs by CCK-8 assay (Rvb = 0 +/- 0.88 %)
Assay [2] concerns the target T1, Lysine-specific demethylase 4D (Homo sapiens, UniProt Q6B0I6).
T1 sequence (Q6B0I6 whole entry): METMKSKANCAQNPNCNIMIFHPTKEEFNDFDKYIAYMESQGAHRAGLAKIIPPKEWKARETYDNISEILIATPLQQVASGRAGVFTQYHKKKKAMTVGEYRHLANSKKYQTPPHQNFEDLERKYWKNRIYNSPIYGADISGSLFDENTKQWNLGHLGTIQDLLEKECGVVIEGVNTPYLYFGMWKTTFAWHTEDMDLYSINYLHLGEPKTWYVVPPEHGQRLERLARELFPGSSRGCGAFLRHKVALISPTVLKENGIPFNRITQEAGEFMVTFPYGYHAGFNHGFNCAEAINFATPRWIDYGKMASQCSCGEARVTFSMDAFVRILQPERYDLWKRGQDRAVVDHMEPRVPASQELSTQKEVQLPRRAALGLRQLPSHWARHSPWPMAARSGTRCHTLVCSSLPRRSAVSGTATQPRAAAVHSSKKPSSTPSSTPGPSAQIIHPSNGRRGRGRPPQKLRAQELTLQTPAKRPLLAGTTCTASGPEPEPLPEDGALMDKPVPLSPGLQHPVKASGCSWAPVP
Description: Inhibition of KDM4D (unknown origin) incubated for 60 mins by microplate reader analysis.

In assay [3] the test system is Huh-7. The assay can be described thus: Inhibition of colony formation in human Huh-7 cells at 2 uM incubated for 72 hrs followed by compound washout and measured after 10 days by crystal violet staining based assay. It is filed as functional, cell-based.
Assay [4] has as its system Huh-7. Description: Inhibition of cell migration in human Huh-7 cells at 2 uM measured for 24 hrs by wound healing assay. Format: functional, cell-based.
Assay [5] deals with Huh-7. To be noted: Homo sapiens, Huh-7, 48 h.
In assay [6] the test system is Huh-7. Description: Induction of cell cycle arrest in human Huh-7 cells assessed as decrease in accumulation of cells at G2/M phase at 2 uM by flow cytometry analysis. Format: functional, cell-based.
Assay [7] concerns Huh-7. Description: Induction of cell cycle arrest in human Huh-7 cells assessed as increase in accumulation of cells at G1 phase at 2 uM by flow cytometry analysis. It is filed as functional, cell-based. For orientation: A flow cytometer gives signals particle by particle.
Assay [8] deals with Huh-7. Description: Induction of cell cycle arrest in human Huh-7 cells assessed as decrease in accumulation of cells at S phase at 2 uM by flow cytometry analysis. It is filed as functional, cell-based.
Assay [9] concerns Huh-7. The assay can be described thus: Downregulation of CyclinD1 expression in human Huh-7 cells by Western blot analysis. Format: functional, cell-based. On the technique in general: In western blotting, separated proteins are transferred to a membrane and probed.
For assay [10], the system named is Huh-7. Description: Downregulation of c-Myc expression in human Huh-7 cells by Western blot analysis. It is filed as functional, cell-based.

On to `Fc1ccc(CNC(=S)Nc2ccc3nc(-c4ccco4)c(-c4ccco4)nc3c2)cc1`, for which the inhibition at 8 µM in the assay with Huh-7 [1] turned out to be 33%. Further, in assay [2], the IC50 (commonly the concentration that gives 50% inhibition) amounted to 3.23 µM.
Consider `S=C(Nc1ccc2nc(-c3ccc(Br)s3)c(-c3ccc(Br)s3)nc2c1)N1CCCCCC1`, for which the inhibition at 8 µM with Huh-7 [1] amounted to 41.5%. The IC50 in assay [2] was > 50 µM.
The like results for `O=C(Nc1ccc2nc(-c3ccco3)c(-c3ccco3)nc2c1)N1CCCCCC1` were, in that order, 32.8% and 2.95 µM.
Turning to `O=[N+]([O-])c1ccc(CNC(=S)Nc2ccc3nc(-c4ccco4)c(-c4ccco4)nc3c2)cc1`, in the assay with Huh-7 [1], the inhibition at 8 µM worked out at 19.4%. Moreover, the IC50 in [2] was found to be 3.66 µM.
In the case of `S=C(Nc1ccc2nc(-c3ccc(Br)o3)c(-c3ccc(Br)o3)nc2c1)N1CCCCCC1`, the inhibition at 8 µM with Huh-7 [1] is 25.8%. For the same compound, the IC50 in assay [2] is 5.98 µM.
As for `COc1ccc(CNC(=S)Nc2ccc3nc(-c4ccco4)c(-c4ccco4)nc3c2)cc1`, the inhibition at 8 µM in the assay on Huh-7 [1] was found to be 32.9%. In addition, the IC50 in assay [2] was found to be 3.12 µM.
As to `S=C(Nc1ccc2nc(-c3ccco3)c(-c3ccco3)nc2c1)c1ccccc1`, the inhibition at 8 µM in the assay on Huh-7 [1] came out at 33.8%. Further, the IC50 in assay [2] is 25.6 µM.
On to `S=C(NCc1ccccn1)Nc1ccc2nc(-c3ccc(Br)o3)c(-c3ccc(Br)o3)nc2c1`, for which, in the assay with Huh-7 [1], the inhibition at 8 µM came to 38.1%. The compound further yielded an IC50 in assay [2] of 13 µM.
The like results for `S=C(NCc1ccncc1)Nc1ccc2nc(-c3ccccn3)c(-c3ccccn3)nc2c1` were, in that order, 39.8% and > 50 µM.
The like results for `Fc1ccc(CNC(=S)Nc2ccc3nc(-c4cccs4)c(-c4cccs4)nc3c2)cc1` were, in that order, 41.8% and > 50 µM.
For `Fc1ccc(CNC(=S)Nc2ccc3nc(-c4ccc(Br)s4)c(-c4ccc(Br)s4)nc3c2)cc1`, in that order: 28.5% and > 50 µM.
Take `Fc1ccc(CNC(=S)Nc2ccc3nc(-c4ccccn4)c(-c4ccccn4)nc3c2)cc1`: in the assay on Huh-7 [1], the inhibition at 8 µM amounted to 37.8%. Moreover, the IC50 in assay [2] was > 50 µM.
For `CCCCNC(=S)Nc1ccc2nc(-c3ccco3)c(-c3ccco3)nc2c1`, in that order: 30.7% and 2.63 µM.
For `O=C(Nc1ccccc1)Nc1ccc2nc(-c3ccco3)c(-c3ccco3)nc2c1`, in that order: 24.2% and 3.7 µM.
For `S=C(NCc1ccccn1)Nc1ccc2nc(-c3ccccn3)c(-c3ccccn3)nc2c1`, in that order: 30.3% and > 50 µM.
Regarding `S=C(Nc1ccc2nc(-c3ccco3)c(-c3ccco3)nc2c1)N1CCCCCC1`, the inhibition at 8 µM in the assay on Huh-7 [1] came to 33.3%. Further, the half-inhibitory concentration (IC50) in assay [2] is 2.31 µM.
For `O=C(Nc1ccccc1)C(=S)Nc1ccc2nc(-c3ccco3)c(-c3ccco3)nc2c1`, in that order: 19.7% and 7.16 µM.
The like results for `S=C(Nc1ccccc1)Nc1ccc2nc(-c3ccco3)c(-c3ccco3)nc2c1` were, in that order, 25.6% and 4.81 µM.
As to `Cc1ccc(-c2nc3ccc(NC(=S)N4CCCCCC4)cc3nc2-c2ccc(C)o2)o1`, the inhibition entry with Huh-7 [3] and in the assay on Huh-7 [4] was “Active” throughout. Further, the IC50 turned out to be 5.23 µM with Huh-7 [5] and 0.62 µM in assay [2]. The inhibition at 8 µM with Huh-7 [1] was found to be 55.5%. Also, the result in the assay with Huh-7 [6], with Huh-7 [7], in the assay on Huh-7 [8], in the assay on Huh-7 [9] and in the assay with Huh-7 [10] was Active.
Consider `COC(=O)CCCNC(=S)Nc1ccc2nc(-c3ccco3)c(-c3ccco3)nc2c1`, for which, in the assay on Huh-7 [1], the inhibition at 8 µM came out at 20.2%. The same compound yielded an IC50 in assay [2] of 2.41 µM.
As to `O=C1CCCN(C(=S)Nc2ccc3nc(-c4ccco4)c(-c4ccco4)nc3c2)CC1`, the inhibition at 8 µM in the assay on Huh-7 [1] is 29.5%. In assay [2], the IC50 is 3.97 µM.
With `S=C(Nc1ccc2nc(-c3ccco3)c(-c3ccco3)nc2c1)Nc1ccccn1`, the inhibition at 8 µM in the assay with Huh-7 [1] was determined as 16%. The concentration for half-maximal inhibition (IC50) in assay [2] was found to be 2.46 µM.
For `S=C(Nc1ccc2nc(-c3ccco3)c(-c3ccco3)nc2c1)N1CCOCC1`, in that order: 30% and 3.8 µM.
Consider `S=C(Nc1ccc2nc(-c3ccccn3)c(-c3ccccn3)nc2c1)N1CCCCCC1`, for which the inhibition at 8 µM in the assay on Huh-7 [1] came out at 39.1%. Moreover, the IC50 in assay [2] is > 50 µM.
